Some results are limits rather than exact numbers.

The experiment deals with Recombinant human ULK1 (1-649) (Homo sapiens (Human), UniProt O75385). The experiment can be described thus: ULK1 ADP Glo kinase activity assay, new method (ULKtide peptide substrate). To be noted: 25° C., 40 minutes, read-out: ULK1 biochemical IC50. An outline of the steps: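 Kinase activity was read as ADP production (ADP-Glo, luminescence 30 min after detection reagent) following a 40-min, 25 °C reaction of Sf9-expressed GST-ULK1 (1-649) with ULKtide substrate and ATP. Compounds ran as 12-point series starting at 10 μM; four-parameter curve fitting versus DMSO wells gave IC50.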
Sequence of Recombinant human ULK1 (1-649) (O75385 1-649): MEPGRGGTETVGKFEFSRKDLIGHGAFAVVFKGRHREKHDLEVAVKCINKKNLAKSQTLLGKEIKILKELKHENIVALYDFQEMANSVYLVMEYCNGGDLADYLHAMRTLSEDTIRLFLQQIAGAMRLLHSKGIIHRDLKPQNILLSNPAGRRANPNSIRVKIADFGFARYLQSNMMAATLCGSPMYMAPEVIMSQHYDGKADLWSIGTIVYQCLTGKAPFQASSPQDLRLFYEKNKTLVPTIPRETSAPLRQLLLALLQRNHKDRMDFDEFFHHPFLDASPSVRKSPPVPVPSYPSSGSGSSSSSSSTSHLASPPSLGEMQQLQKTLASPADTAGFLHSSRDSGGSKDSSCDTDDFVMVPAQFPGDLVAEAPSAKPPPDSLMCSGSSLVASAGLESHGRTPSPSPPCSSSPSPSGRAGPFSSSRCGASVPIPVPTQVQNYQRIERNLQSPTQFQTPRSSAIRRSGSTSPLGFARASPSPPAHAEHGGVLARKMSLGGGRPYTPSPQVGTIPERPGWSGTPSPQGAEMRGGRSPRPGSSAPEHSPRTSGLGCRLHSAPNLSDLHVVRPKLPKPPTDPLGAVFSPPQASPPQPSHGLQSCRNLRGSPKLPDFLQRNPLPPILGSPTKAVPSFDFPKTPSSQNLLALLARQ
(ADP-Glo turns the ADP formed in a reaction into a luminescent signal.)
With `CN1CCS(=O)(=O)c2cc(-c3nc(Nc4cc5nnn(C)c5cc4Cl)ncc3C(F)(F)F)sc2C1=O` [Example 200, 7-(2-((6-chloro-1-methyl-1H-benzo[d][1,2,3]triazol-5-yl)amino)-5-(trifluoromethyl)pyrimidin-4-yl)-4-methyl-3,4-dihydrothieno[2,3-f][1,4]thiazepin-5(2H)-one 1,1-dioxide], the half-maximal inhibitory concentration (IC50) was above 100 nM. Next, `O=C1c2sc(-c3nc(Nc4cc5c(cc4Cl)CCNC5)ncc3C(F)(F)F)cc2S(=O)(=O)CCN1C1CC1` [Example 201, 7-(2-((6-chloro-1,2,3,4-tetrahydroisoquinolin-7-yl)amino)-5-(trifluoromethyl)pyrimidin-4-yl)-4-cyclopropyl-3,4-dihydrothieno[2,3-f][1,4]thiazepin-5(2H)-one 1,1-dioxide]: at most 5 nM. For `O=C1c2sc(-c3nc(Nc4cc5c(cc4Cl)CCNC5)ncc3C(F)(F)F)cc2S(=O)(=O)CCN1C1CCC1` [Example 202, 7-(2-((6-chloro-1,2,3,4-tetrahydroisoquinolin-7-yl)amino)-5-(trifluoromethyl)pyrimidin-4-yl)-4-cyclobutyl-3,4-dihydrothieno[2,3-f][1,4]thiazepin-5(2H)-one 1,1-dioxide] the value was at most 5 nM. For `CCN1CCc2cc(Nc3ncc(C(F)(F)F)c(-c4cc5c(s4)C(=O)N(C4CCC4)CCS5(=O)=O)n3)c(Cl)cc2C1` [Example 203, 7-(2-((7-chloro-2-ethyl-1,2,3,4-tetrahydroisoquinolin-6-yl)amino)-5-(trifluoromethyl)pyrimidin-4-yl)-4-cyclobutyl-3,4-dihydrothieno[2,3-f][1,4]thiazepin-5(2H)-one 1,1-dioxide] the value was at most 5 nM; for `CCN1CCS(=O)(=O)c2cc(-c3nc(Nc4cc5c(cc4Cl)CCNC5)ncc3C(F)(F)F)sc2C1=O` [Example 204, 7-(2-((6-chloro-1,2,3,4-tetrahydroisoquinolin-7-yl)amino)-5-(trifluoromethyl)pyrimidin-4-yl)-4-ethyl-3,4-dihydrothieno[2,3-f][1,4]thiazepin-5(2H)-one 1,1-dioxide], at most 5 nM. Turning to `Cc1cc2c(cc1Nc1ncc(C(F)(F)F)c(-c3cc4c(s3)C(=O)N(C)CCS4(=O)=O)n1)CCN(CC1CC1)C2` [Example 205, 7-(2-((2-(cyclopropylmethyl)-7-methyl-1,2,3,4-tetrahydroisoquinolin-6-yl)amino)-5-(trifluoromethyl)pyrimidin-4-yl)-4-methyl-3,4-dihydrothieno[2,3-f][1,4]thiazepin-5(2H)-one 1,1-dioxide], the IC50 is at most 5 nM.

As for `CN1CCS(=O)(=O)c2cc(-c3nc(Nc4ccc(N5CCN(CC6CC6)CC5)cc4Cl)ncc3C(F)(F)F)sc2C1=O` [Example 206, 7-(2-((2-chloro-4-(4-(cyclopropylmethyl)piperazin-1-yl)phenyl)amino)-5-(trifluoromethyl)pyrimidin-4-yl)-4-methyl-3,4-dihydrothieno[2,3-f][1,4]thiazepin-5(2H)-one 1,1-dioxide], the IC50 was at most 5 nM.

Consider `CCc1cc2c(cc1Nc1ncc(C(F)(F)F)c(-c3cc4c(s3)C(=O)N(C3CC3)CCS4(=O)=O)n1)CCNC2` [Example 207, 4-cyclopropyl-7-(2-((7-ethyl-1,2,3,4-tetrahydroisoquinolin-6-yl)amino)-5-(trifluoromethyl)pyrimidin-4-yl)-3,4-dihydrothieno[2,3-f][1,4]thiazepin-5(2H)-one 1,1-dioxide], for which the IC50 is at most 5 nM. `CCc1cc2c(cc1Nc1ncc(C(F)(F)F)c(-c3cc4c(s3)C(=O)N(C3CCC3)CCS4(=O)=O)n1)CCNC2` [Example 208, 4-cyclobutyl-7-(2-((7-ethyl-1,2,3,4-tetrahydroisoquinolin-6-yl)amino)-5-(trifluoromethyl)pyrimidin-4-yl)-3,4-dihydrothieno[2,3-f][1,4]thiazepin-5(2H)-one 1,1-dioxide]: the IC50 is at most 5 nM. Consider `O=C1c2sc(-c3nc(Nc4cc5c(cc4C4CC4)CNCC5)ncc3C(F)(F)F)cc2S(=O)(=O)CCN1C1CC1` [Example 209, 4-cyclopropyl-7-(2-((7-cyclopropyl-1,2,3,4-tetrahydroisoquinolin-6-yl)amino)-5-(trifluoromethyl)pyrimidin-4-yl)-3,4-dihydrothieno[2,3-f][1,4]thiazepin-5(2H)-one 1,1-dioxide], for which the IC50 is at most 5 nM. Consider `O=C1c2sc(-c3nc(Nc4cc5c(cc4Cl)CNCC5)ncc3C(F)(F)F)cc2S(=O)(=O)CCN1C1COC1` [Example 210, 7-(2-((7-chloro-1,2,3,4-tetrahydroisoquinolin-6-yl)amino)-5-(trifluoromethyl)pyrimidin-4-yl)-4-(oxetan-3-yl)-3,4-dihydrothieno[2,3-f][1,4]thiazepin-5(2H)-one 1,1-dioxide], for which the IC50 is at most 5 nM. On to `CCN1CCc2cc(Cl)c(Nc3ncc(C(F)(F)F)c(-c4cc5c(s4)C(=O)N(C)CCS5(=O)=O)n3)cc2C1` [Example 211, 7-(2-((6-chloro-2-ethyl-1,2,3,4-tetrahydroisoquinolin-7-yl)amino)-5-(trifluoromethyl)pyrimidin-4-yl)-4-methyl-3,4-dihydrothieno[2,3-f][1,4]thiazepin-5(2H)-one 1,1-dioxide], for which the IC50 fell in the range of 10 to 50 nM. For `CCc1cc2c(cc1Nc1ncc(C(F)(F)F)c(-c3cc4c(s3)C(=O)N(C)CCS4(=O)=O)n1)CNCC2` [Example 212, 7-(2-((6-ethyl-1,2,3,4-tetrahydroisoquinolin-7-yl)amino)-5-(trifluoromethyl)pyrimidin-4-yl)-4-methyl-3,4-dihydrothieno[2,3-f][1,4]thiazepin-5(2H)-one 1,1-dioxide] the value was at most 5 nM; for `CCN1CCc2cc(Nc3ncc(C(F)(F)F)c(-c4cc5c(s4)C(=O)N(C4CC4)CCS5(=O)=O)n3)c(Cl)cc2C1` [Example 213, 7-(2-((7-chloro-2-ethyl-1,2,3,4-tetrahydroisoquinolin-6-yl)amino)-5-(trifluoromethyl)pyrimidin-4-yl)-4-cyclopropyl-3,4-dihydrothieno[2,3-f][1,4]thiazepin-5(2H)-one 1,1-dioxide], at most 5 nM. With `O=C1c2sc(-c3nc(Nc4cc5c(cc4Cl)CCNC5)ncc3C(F)(F)F)cc2S(=O)(=O)CCN1CC(F)(F)F` [Example 214, 7-(2-((6-chloro-1,2,3,4-tetrahydroisoquinolin-7-yl)amino)-5-(trifluoromethyl)pyrimidin-4-yl)-4-(2,2,2-trifluoroethyl)-3,4-dihydrothieno[2,3-f][1,4]thiazepin-5(2H)-one 1,1-dioxide], the IC50 was at most 5 nM. Next, `O=C1c2sc(-c3nc(Nc4cc5c(cc4C4CC4)CNCC5)ncc3C(F)(F)F)cc2S(=O)(=O)CCN1CC(F)(F)F` [Example 215, 7-(2-((7-cyclopropyl-1,2,3,4-tetrahydroisoquinolin-6-yl)amino)-5-(trifluoromethyl)pyrimidin-4-yl)-4-(2,2,2-trifluoroethyl)-3,4-dihydrothieno[2,3-f][1,4]thiazepin-5(2H)-one 1,1-dioxide]: at most 5 nM; `Cc1cc2c(cc1Nc1ncc(C(F)(F)F)c(-c3cc4c(s3)C(=O)N(C)CCS4(=O)=O)n1)CCN(CC1COC1)C2` [Example 216, 4-methyl-7-(2-((7-methyl-2-(oxetan-3-ylmethyl)-1,2,3,4-tetrahydroisoquinolin-6-yl)amino)-5-(trifluoromethyl)pyrimidin-4-yl)-3,4-dihydrothieno[2,3-f][1,4]thiazepin-5(2H)-one 1,1-dioxide]: at most 5 nM.

The IC50 is the concentration that inhibits the measured activity by half.
